Source: PMC9065260 (Frontiers in Pharmacology, 2022)
Values joined by “and” are separate entries in the source; they are usually repeats but may differ in a detail not shown here. Identical values can stand only once.

Columns and labels:
[1] = system: KYSE450 cells (caspase-3, cytochrome-c, PARP); assay: Western blot of apoptosis-related marker proteins; type: cell-based, human; conditions: KYSE450, 4 μM, 6, 12 and 24 h vs control at 0 h
Experimental: KYSE450 cells (3 × 10^5/well) were incubated overnight in 10 square petri dishes and then treated with compound 3d at 4 μM for 0, 6, 12, and 24 h. Cells treated with 0.1% DMSO were used as control. Then, the cells were harvested, and total proteins were extracted. […] The membrane was blocked for 1 h, then incubated overnight with a 1:1000 dilution of anti-caspase-3, anti-cytochrome-c, and anti-PARP, or 1 : 3,000 dilution of anti-β-action primary antibody at 4°C. Finally, 1 : 3,000 anti-rabbit secondary antibodies were incubated for 2 h at room temperature. Protein bands were developed by chemiluminescence.

KYSE410 cells = assay: MTT assay for cell proliferation and cytotoxicity; type: cell-based; conditions: Homo sapiens, KYSE-410; MTT, 48 h, mean ± SD; read-out: IC50 KYSE410
Experimental: (§3) The compounds were dissolved in DMSO to make a 50 mM stock solution and were diluted to the concentration of working solutions with the complete growth medium before administration.
(§4) Cells were seeded in 96-well plates with densities of 2,200–2,500 cells/well in 100 μL. One day after seeding, the concentration of the test compounds between 0 and 50 μM, 0.1% DMSO was added to cells as control. […] After 48 h, MTT was added and incubated in the plate for 1–4 h in the incubator.

KYSE450TR cells [2] = assay: MTT assay, drug-resistant cell line; type: cell-based, human; conditions: Homo sapiens; MTT, paclitaxel-resistant esophageal cancer cell line; read-out: IC50 KYSE450TR
Experimental: as §3, §4

[3] = molecular target: T1, EGFR mutant protein (672-1210, L858R) (Homo sapiens, UniProt P00533, L858R); assay: Surface plasmon resonance (SPR) EGFR protein affinity; type: binding
T1 construct: the EGFR mutant type (672-1210, L858R, Active MOTIF, cat: 81200); purchased Active MOTIF 81200
Experimental: Surface plasmon resonance experiments were carried out to evaluate the interaction between 3d with the EGFR wild-type (0.468 μg/μL, Active MOTIF, cat: 31165) and the EGFR mutant type (672-1210, L858R, Active MOTIF, cat: 81200). The interaction of erlotinib with wild-type EGFR was also studied. Biacore T-200 (GE healthcare, Waukesha, WI, United States) equipment was used for the study. First, the EGFR wild-type (0.468 μg/μL, Active MOTIF, cat: 31165) and the EGFR mutant type (672-1210, L858R, Active MOTIF, cat: 81200) were covalently immobilized at densities of 2000 response units onto a CM5 sensor chip. Then, 3d dissolved in DMSO was injected at concentrations between 0.064 and 5,000 nM at 25°C. […] During the interaction, the changes in the refractive index were measured in real time to allow the plotting of the results of interaction as response units versus time. The interaction results were analyzed with BIA evaluation 3.0 software.

[4] = molecular target: T2, EGFR wild-type protein (H672-E410) (Homo sapiens, UniProt P00533); assay: as above; type: binding; conditions: immobilized wild-type EGFR
T2 construct: purchased Active MOTIF 31165
Experimental: Biacore T-200 (GE healthcare, Waukesha, WI, United States) equipment was used for the study. […] During the interaction, the changes in the refractive index were measured in real time to allow the plotting of the results of interaction as response units versus time. The interaction results were analyzed with BIA evaluation 3.0 software.

[5] = system: human esophageal epithelial cell SHEE; assay: MTT assay, toxicity against normal cells; type: cell-based; conditions: MTT, normal human esophageal epithelial cells, mean ± SD, read-out: IC50 SHEE
Experimental: Cells were seeded in 96-well plates with densities of 2,200–2,500 cells/well in 100 μL. One day after seeding, the concentration of the test compounds between 0 and 50 μM, 0.1% DMSO was added to cells as control. Approximately 2200-2500 transfected cells in 100 μL were incubated in quintuplicate in 96-well plates. After 48 h, MTT was added and incubated in the plate for 1–4 h in the incubator.

KYSE70 cells = assay: MTT assay for cell proliferation and cytotoxicity; type: cell-based; conditions: Homo sapiens, KYSE-70; MTT, 48 h, mean ± SD; read-out: IC50 KYSE70
Experimental: as §3, §4

KYSE70TR cells = assay: MTT assay, drug-resistant cell line; type: cell-based, human; conditions: Homo sapiens; MTT, paclitaxel-resistant esophageal cancer cell line; read-out: IC50 KYSE70TR
Experimental: as §3, §4

HCC827 cells [6] = assay: MTT assay for cell proliferation and cytotoxicity; type: cell-based; conditions: Homo sapiens, 48 h, mean ± SD
Experimental: as §3, §4

H1650TR cells = assay: MTT assay, drug-resistant cell line; type: cell-based, human; conditions: Homo sapiens; MTT, paclitaxel-resistant lung cancer cell line; read-out: IC50 H1650TR
Experimental: as §3, §4

HCC827GR cells [7] = assay: MTT assay, drug-resistant cell line; type: cell-based, human; conditions: Homo sapiens; MTT, gefitinib-resistant lung cancer cell line; read-out: IC50 HCC827GR
Experimental: as §3, §4

KYSE450 cells [8] = assay: Cell cycle analysis by flow cytometry; type: cell-based, human; conditions: 24 h
Experimental: (§5) KYSE450 and KYSE450TR cells were plated in 6-well plates with a density of 1 × 10^5 cells/well and cultured overnight to attach. […] After trypsinization treatment, the cells were collected by centrifugation. The cell pellet was re-suspended in 70% ethanol at −20°C for at least 3 h. […] Cells were re-transferred to the BD FACSCalibur™ Flow Cytometer. All analyses were performed with FlowJo software v105.3.6.

KYSE450TR cells [9] = assay: Cell cycle analysis by flow cytometry; type: cell-based, human; conditions: 24 h
Experimental: as §5

KYSE450 cells [10] = assay: Flow cytometry detection for cell apoptosis (Annexin V/PI); type: cell-based, human; conditions: 48 h
Experimental: (§1) Cell apoptosis analysis was carried out by flow cytometry using the Annexin V/PI apoptosis methods. […] The cells were harvested and incubated with 250 μL of 1 × Annexin V binding buffer containing 5 μL of PI and 5 μL of FITC Annexin V (final concentration 1.8 μg/ml, Biolegend cat: 640945) for 15 min at room temperature in the dark. Then 200 µL of 1 × binding buffer was added for flow cytometry analysis (BD FACSCalibur™ Flow Cytometer).

KYSE450TR cells [11] = assay: as above; type: cell-based, human; conditions: 48 h
Experimental: as §1

KYSE450 cells [12] = assay: MTT assay for cell proliferation and cytotoxicity; type: cell-based; conditions: Homo sapiens, KYSE-450; MTT, 48 h, mean ± SD; read-out: IC50 KYSE450
Experimental: as §3, §4

KYSE410TR cells = assay: MTT assay, drug-resistant cell line; type: cell-based, human; conditions: Homo sapiens; MTT, paclitaxel-resistant esophageal cancer cell line; read-out: IC50 KYSE410TR
Experimental: as §3, §4

HCC827 cells [13] = assay: Plate clone formation assay; type: cell-based, human; conditions: HCC827, 2.5, 5 and 10 µM, 10 days
Experimental: (§2) Cells were seeded in 6-well plates with a density of 200 cells/well and cultured overnight for attachment. […] Medium with or without compounds was changed every 48 h. When colony formation was visible, the medium was discharged. Then, the colonies were washed with cold PBS, fixed with 4% paraformaldehyde (PFA) for at least 30 min, and then stained with 0.2% crystal violet solution in 100% ethanol for 20 min.

KYSE450 cells [14] = assay: Plate clone formation assay; type: cell-based, human; conditions: KYSE450, 2.5, 5 and 10 µM, 10 days
Experimental: as §2

HCC827GR cells [15] = assay: Plate clone formation assay; type: cell-based, human; conditions: HCC827GR, 2.5, 5 and 10 µM, 10 days
Experimental: as §2

KYSE450TR cells [16] = assay: Plate clone formation assay; type: cell-based, human; conditions: KYSE450TR, 2.5, 5 and 10 µM, 10 days
Experimental: as §2

H1650 cells = assay: MTT assay for cell proliferation and cytotoxicity; type: cell-based; conditions: Homo sapiens, NCI-H1650; MTT, 48 h, mean ± SD; read-out: IC50 H1650
Experimental: as §3, §4

COCCOc1cc2ncnc(Nc3cccc(-c4cn(Cc5cc(Br)cc(Br)c5)nn4)c3)c2cc1OCCOC [Compound 3d, [6,7-Bis-(2-Methoxy-Ethoxy)-Quinazolin-4-yl]-{3-[1-(3,5-Dibromo-Benzyl)-1H-(1,2,3)Triazol-4-yl]-Phenyl}-Amine]
caspase-3 protein level [1]: higher than those in the control at 0 h | cleaved PARP protein level [1]: higher than those of the control at 0 h | cytochrome-c protein level [1]: higher than those in the control at 0 h | IC50 (KYSE410 cells): 6.91 ± 0.4 µM | IC50 (KYSE450TR cells [2]): 10 ± 0.75 µM | Kd ([3]; immobilized mutant EGFR (L858R), 25°C): 3.12 µM and 3.13 µM | Rmax ([3]; immobilized mutant EGFR (mEGFR)): 21.16 RU | Rmax [4]: 12.9 RU | Kd ([4]; 25°C): 6.88 µM and 6.89 µM | IC50 [5]: > 50 µM | IC50 (KYSE70 cells): 5.43 ± 0.21 µM | IC50 (KYSE70TR cells): 7.17 ± 0.73 µM | IC50 (HCC827 cells [6]): 8.17 ± 0.42 µM | IC50 (H1650TR cells): 5.76 ± 0.33 µM | IC50 (HCC827GR cells [7]): 2.38 ± 0.17 µM | ratio of cells in G0/G1 phase (KYSE450 cells [8]; KYSE450, 3.5 μM): 57.83% | ratio of cells in G2/M phase (KYSE450 cells [8]; KYSE450, 3.5 μM): 16.5% | ratio of cells in S phase (KYSE450 cells [8]; KYSE450, 3.5 μM): 25.67% | ratio of cells in G0/G1 phase (KYSE450 cells [8]; KYSE450, 7 μM): 56.56% | ratio of cells in G2/M phase (KYSE450 cells [8]; KYSE450, 7 μM): 18.74% | ratio of cells in S phase (KYSE450 cells [8]; KYSE450, 7 μM): 24.7% | ratio of cells in G0/G1 phase (KYSE450 cells [8]; KYSE450, 14 μM): 60.37% | ratio of cells in G2/M phase (KYSE450 cells [8]; KYSE450, 14 μM): 15.47% | ratio of cells in S phase (KYSE450 cells [8]; KYSE450, 14 μM): 24.16% | ratio of cells in G0/G1 phase (KYSE450 cells [8]; KYSE450, 28 μM): 55.21% | ratio of cells in G2/M phase (KYSE450 cells [8]; KYSE450, 28 μM): 20.66% | ratio of cells in S phase (KYSE450 cells [8]; KYSE450, 28 μM): 24.13% | cell cycle phase in which cells are arrested (KYSE450 cells [8]; KYSE450, 3.5-28 μM): G0/G1 phase | ratio of cells in G0/G1 phase (KYSE450TR cells [9]; 3.5 μM): 34.92% | ratio of cells in G2/M phase (KYSE450TR cells [9]; 3.5 μM): 22.86% | ratio of cells in S phase (KYSE450TR cells [9]; 3.5 μM): 42.22% | ratio of cells in G0/G1 phase (KYSE450TR cells [9]; 7 μM): 37.56% | ratio of cells in G2/M phase (KYSE450TR cells [9]; 7 μM): 23.94% | ratio of cells in S phase (KYSE450TR cells [9]; 7 μM): 38.50% | ratio of cells in G0/G1 phase (KYSE450TR cells [9]; 14 μM): 43.34% | ratio of cells in G2/M phase (KYSE450TR cells [9]; 14 μM): 23.39% | ratio of cells in S phase (KYSE450TR cells [9]; 14 μM): 33.27% | ratio of cells in G0/G1 phase (KYSE450TR cells [9]; 28 μM): 41.19% | ratio of cells in G2/M phase (KYSE450TR cells [9]; 28 μM): 27.28% | ratio of cells in S phase (KYSE450TR cells [9]; 28 μM): 31.53% | cell cycle phase in which cells are arrested (KYSE450TR cells [9]; 3.5-28 μM): G2/M phase | proportion of apoptotic cells (KYSE450 cells [10]; KYSE450, 5 μM): 24.50% | proportion of apoptotic cells (KYSE450 cells [10]; KYSE450, 10 μM): 69.64% | proportion of apoptotic cells (KYSE450TR cells [11]; 5 μM): 44.12% | proportion of apoptotic cells (KYSE450TR cells [11]; 10 μM): 48.77% | IC50 (KYSE450 cells [12]): 4.23 ± 0.19 µM | IC50 (KYSE410TR cells): 7.91 ± 0.61 µM | inhibition effect on colony formation (HCC827 cells [13]): more significant than that of erlotinib | inhibition effect on colony formation (KYSE450 cells [14]): more significant than that of erlotinib | inhibition effect on colony formation (HCC827GR cells [15]): more significant than that of erlotinib | inhibition effect on colony formation (KYSE450TR cells [16]): more significant than that of erlotinib | IC50 (H1650 cells): 2.99 ± 0.13 µM
